Activity calls are given as the source filed them. How the calls were made is not given here.
Target: Small ubiquitin-related modifier 2 (Homo sapiens) (UniProt P61956)
Experiment: SUMO2 binding disruption by SUMO1 hits – biochemical, FRET, human SUMO2, uHTS hits, selectivity assay for SUMO1 interaction inhibitor project, dose response (AID 624384)
Conditions: SUMO2 FRET protein-protein interaction selectivity assay

Sequence of Small ubiquitin-related modifier 2 (Homo sapiens) (P61956 whole entry, looked up): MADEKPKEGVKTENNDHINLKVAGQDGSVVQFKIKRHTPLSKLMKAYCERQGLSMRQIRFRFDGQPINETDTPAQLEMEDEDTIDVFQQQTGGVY

- IC50: > 66 µM (inactive)
Structure (SMILES): C[c-]1[c-](C)[c-](C)[c-](C)[c-]1C.[Fe].c1cc2nccc(N3CCCC3)[c-]2c1 (stereo unspecified)

Reference: PubChem BioAssay AID624384 (Sanford-Burnham Center for Chemical Genomics, 2012)
